According to PMC8776995 (Frontiers in Chemistry, 2022):
Where “and” joins values, the source holds several entries; their conditions need not be identical. Equal values may be shown once.

What was measured:
[1] = test system: H1975 cells; test: CCK-8 antiproliferation assay, H1975; conditions: for Inhibitory efficacy: H1975 cells
[2] = test system: H460 cells; test: CCK-8 antiproliferation assay, H460; conditions: for Inhibitory efficacy: H460 cells
[3] = test system: A549 cells; test: CCK-8 antiproliferation assay, A549; conditions: for Inhibitory efficacy: A549 cells
Method: The compounds were dissolved in DMSO to make a 20 μM stock solution and diluted to the concentration of working solutions with complete growth medium before administration.
Cells were seeded in 96-well plates: 3,000–5,000 cells/well in 100 ul. One day after seeding, the test compounds at concentration between 1.0 and 16.0 μ M or 0.1% DMSO (as control) were added to cells in triplicate. 48 h later, CCK-8 was added and incubated the plate for 1–4 h in the incubator. The absorbance at 450 nm were measured using a microplate reader (Bio-Tek).

[4] = target: wild-type EGFR (Homo sapiens, UniProt P00533); test: EGFR kinase assay (ELISA); conditions: for A450: raw ELISA absorbance
Chain of wild-type EGFR (P00533 25-1210): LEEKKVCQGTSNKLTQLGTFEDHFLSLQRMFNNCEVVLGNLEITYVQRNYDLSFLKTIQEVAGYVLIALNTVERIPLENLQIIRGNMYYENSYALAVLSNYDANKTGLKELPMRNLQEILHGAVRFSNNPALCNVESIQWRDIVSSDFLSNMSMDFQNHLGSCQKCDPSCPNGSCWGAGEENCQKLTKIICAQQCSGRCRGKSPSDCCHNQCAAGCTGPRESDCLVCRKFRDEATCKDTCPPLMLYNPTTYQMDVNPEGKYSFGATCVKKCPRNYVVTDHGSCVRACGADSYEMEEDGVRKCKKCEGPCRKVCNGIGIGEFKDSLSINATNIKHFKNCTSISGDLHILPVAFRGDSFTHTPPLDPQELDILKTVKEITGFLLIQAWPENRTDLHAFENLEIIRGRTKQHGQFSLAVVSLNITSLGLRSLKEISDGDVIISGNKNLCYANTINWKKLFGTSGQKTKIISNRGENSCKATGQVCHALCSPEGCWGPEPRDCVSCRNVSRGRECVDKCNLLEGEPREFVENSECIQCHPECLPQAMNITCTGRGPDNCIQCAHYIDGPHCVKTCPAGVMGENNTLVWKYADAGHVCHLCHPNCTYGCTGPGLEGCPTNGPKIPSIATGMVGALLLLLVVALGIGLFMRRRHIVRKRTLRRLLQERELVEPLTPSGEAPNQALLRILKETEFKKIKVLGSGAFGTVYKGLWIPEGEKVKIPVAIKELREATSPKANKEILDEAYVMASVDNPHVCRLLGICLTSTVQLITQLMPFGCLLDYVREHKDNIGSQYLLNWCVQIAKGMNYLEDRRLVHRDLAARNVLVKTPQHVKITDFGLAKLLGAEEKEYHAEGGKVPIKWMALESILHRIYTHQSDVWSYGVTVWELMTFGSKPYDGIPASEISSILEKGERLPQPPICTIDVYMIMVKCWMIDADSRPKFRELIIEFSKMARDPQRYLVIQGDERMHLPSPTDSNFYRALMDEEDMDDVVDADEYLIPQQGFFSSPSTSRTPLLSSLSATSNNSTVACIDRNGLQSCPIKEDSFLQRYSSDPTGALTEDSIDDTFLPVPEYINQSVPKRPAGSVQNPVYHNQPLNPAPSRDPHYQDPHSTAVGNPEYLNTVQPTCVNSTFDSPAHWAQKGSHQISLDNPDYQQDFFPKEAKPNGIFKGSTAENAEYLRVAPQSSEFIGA

[5] = test system: PC-9 cells; test: CCK-8 antiproliferation assay, PC-9; conditions: Homo sapiens, PC-9, 48 h, read-out: IC50 (μM) PC-9
[6] = 1uM, given as fraction, Repeat 1-3
[7] = 2uM, given as fraction, Repeat 1-3
[8] = 4uM, given as fraction, Repeat 1-3
[9] = 8uM, given as fraction, Repeat 1-3
[10] = 16uM, given as fraction, Repeat 1-3

IC50 ([1]; Homo sapiens, NCI-H1975, 48 h, read-out: IC50 (μM) H1975, CCK-8, 48 h, average ± SD of three independent experiments): 18.3 ± 4.45 µM
IC50 ([2]; Homo sapiens, NCI-H460, 48 h, read-out: IC50 (μM) H460, CCK-8, 48 h, average ± SD of three independent experiments): 3.18 ± 0.11 µM
IC50 ([3]; Homo sapiens, A549, 48 h, read-out: IC50 (μM) A549, CCK-8, 48 h, average ± SD of three independent experiments): 4.86 ± 0.6 µM
melting point: 85 to 88 °C
IC50 ([4]; IC50 (μM) EGFR, ELISA, 3 μmol/L ATP): 15.5 µM
inhibition at 30 pM ([4]; concentration 0.03 nM, one value per replicate column): 13.7%
Inhibition ([4]; concentration 0.03 nM, one value per replicate column, 3e-05 µM): 9.36
inhibition at 0.0003 µM ([4]; concentration 0.3 nM, one value per replicate column): 14.2%
Inhibition ([4]; concentration 0.3 nM, one value per replicate column, 0.0003 µM): 12.4795
inhibition at 0.003 µM ([4]; concentration 3 nM, one value per replicate column): 14.4%
Inhibition ([4]; concentration 3 nM, one value per replicate column, 0.003 µM): 19.0476
inhibition at 0.03 µM ([4]; concentration 30 nM, one value per replicate column): 18.2%
Inhibition ([4]; concentration 30 nM, one value per replicate column, 0.03 µM): 26.7652
inhibition at 0.3 µM ([4]; concentration 300 nM, one value per replicate column): 32.9%
Inhibition ([4]; concentration 300 nM, one value per replicate column, 0.3 µM): 32.1839
inhibition at 3 µM ([4]; concentration 3000 nM, one value per replicate column): 34.7%
Inhibition ([4]; concentration 3000 nM, one value per replicate column, 3 µM): 34.8112
inhibition at 30 µM ([4]; concentration 30000 nM, one value per replicate column): 60.1%
Inhibition ([4]; concentration 30000 nM, one value per replicate column, 30 µM): 58.1281
A450 ([4]; concentration 0.0001 nM): 0.831 and 0.824
A450 ([4]; concentration 0.03 nM): 0.745 and 0.767
A450 ([4]; concentration 0.3 nM): 0.742 and 0.748
A450 ([4]; concentration 3 nM): 0.741 and 0.708
A450 ([4]; concentration 30 nM): 0.717 and 0.661
A450 ([4]; concentration 300 nM): 0.625 and 0.628
A450 ([4]; concentration 3000 nM): 0.614 and 0.612
A450 ([4]; concentration 30000 nM): 0.455 and 0.47
IC50 [5]: > 100 µM
SMILES: COCCOc1cc2ncnc(Nc3cccc(-c4cn(-c5ccc(OC)cc5OC)nn4)c3)c2cc1OCCOC [e17, [6,7-Bis-(2-methoxy-ethoxy)-quinazolin-4-yl]-{3-[1-(2,4-dimethoxy-phenyl)-1H-[1,2,3]triazol-4-yl]-phenyl}-amine]
Inhibitory efficacy [1, 6]: 0.195 and 0.1523
Inhibitory efficacy [1, 7]: 0.402 and 0.2557
Inhibitory efficacy [1, 8]: 0.3137 and 0.2571
Inhibitory efficacy [1, 9]: 0.5 and 0.471
Inhibitory efficacy [1, 10]: 0.4476 and 0.4006
inhibition at 1 µM ([1]; Homo sapiens, NCI-H1975, read-out: Inhibitory efficacy, H1975 cells, 1uM, given as fraction, Repeat 1-3): 23.1%
inhibition at 2 µM ([1]; Homo sapiens, NCI-H1975, read-out: Inhibitory efficacy, H1975 cells, 2uM, given as fraction, Repeat 1-3): 33.3%
inhibition at 4 µM ([1]; Homo sapiens, NCI-H1975, read-out: Inhibitory efficacy, H1975 cells, 4uM, given as fraction, Repeat 1-3): 29%
inhibition at 8 µM ([1]; Homo sapiens, NCI-H1975, read-out: Inhibitory efficacy, H1975 cells, 8uM, given as fraction, Repeat 1-3): 52.8%
inhibition at 16 µM ([1]; Homo sapiens, NCI-H1975, read-out: Inhibitory efficacy, H1975 cells, 16uM, given as fraction, Repeat 1-3): 47.1%
Inhibitory efficacy [2, 7]: 0.3561 and 0.3949
Inhibitory efficacy [2, 8]: 0.5495 and 0.6263
Inhibitory efficacy [2, 9]: 0.7733 and 0.7776
Inhibitory efficacy [2, 10]: 0.8649 and 0.8113
inhibition at 2 µM ([2]; Homo sapiens, NCI-H460, read-out: Inhibitory efficacy, H460 cells, 2uM, given as fraction, Repeat 1-3): 29.5%
inhibition at 4 µM ([2]; Homo sapiens, NCI-H460, read-out: Inhibitory efficacy, H460 cells, 4uM, given as fraction, Repeat 1-3): 60.9%
inhibition at 8 µM ([2]; Homo sapiens, NCI-H460, read-out: Inhibitory efficacy, H460 cells, 8uM, given as fraction, Repeat 1-3): 77.7%
inhibition at 16 µM ([2]; Homo sapiens, NCI-H460, read-out: Inhibitory efficacy, H460 cells, 16uM, given as fraction, Repeat 1-3): 81.3%
Inhibitory efficacy [3, 6]: 0.282 and 0.1573
Inhibitory efficacy [3, 7]: 0.4285 and 0.3755
Inhibitory efficacy [3, 8]: 0.5452 and 0.5691
Inhibitory efficacy [3, 9]: 0.5949 and 0.5372
Inhibitory efficacy [3, 10]: 0.5916 and 0.6049
inhibition at 1 µM ([3]; Homo sapiens, A549, read-out: Inhibitory efficacy, A549 cells, 1uM, given as fraction, Repeat 1-3): 15.3%
inhibition at 2 µM ([3]; Homo sapiens, A549, read-out: Inhibitory efficacy, A549 cells, 2uM, given as fraction, Repeat 1-3): 40.1%
inhibition at 4 µM ([3]; Homo sapiens, A549, read-out: Inhibitory efficacy, A549 cells, 4uM, given as fraction, Repeat 1-3): 55.6%
inhibition at 8 µM ([3]; Homo sapiens, A549, read-out: Inhibitory efficacy, A549 cells, 8uM, given as fraction, Repeat 1-3): 58.9%
inhibition at 16 µM ([3]; Homo sapiens, A549, read-out: Inhibitory efficacy, A549 cells, 16uM, given as fraction, Repeat 1-3): 65%
